Laboratory results from US20180177778A1, “Methods for Treating HCV” (priority 2015, published 2018).

Columns and labels:
[1] = Effect of food on bioavailability of co-formulated tablets, healthy Japanese subjects (Example 20); format: in vivo, human; conditions: for Tmax: both sexes, mean Tmax
From the text: Japanese male and female volunteers 20 to 55 years of age in general good health with a body mass index ≥18.5 and <25 kg/m^2 were eligible to enroll. Subjects who had positive test results for hepatitis A, B, or C, or for HIV infection, and subjects who were using known inhibitors or inducers of CYP3A isozyme or organic anion transporting polypeptide 1B1 (OATP1B1) inhibitors were excluded from participation. Subjects were not to have consumed alcohol, grapefruit, star fruit, or Seville oranges within 72 hours, or to have used nicotine-containing products within 6 months before study drug administration.
This was a 2-sequence 2-period crossover study. A single dose of two ombitasvir/paritaprevir/ritonavir 12.5/75/50 mg coformulated tablets (total dose of 25/150/100 mg) was administered in the morning on Study Day 1 of each period as follows:
PK parameters for ombitasvir, paritaprevir, and ritonavir were estimated by noncompartmental methods using Phoenix WinNonlin, version 6.3 (Pharsight, A Certara® Company, St. Louis, Mo.) including maximum plasma concentration (Cmax), time to Cmax (Tmax), area under the plasma concentration-time curve (AUC), and terminal-phase elimination half-life (t1/2). The effect of food on the bioavailability of ombitasvir, paritaprevir, and ritonavir was assessed using a repeated measures analysis of natural logarithms of Cmax and AUC values. Point estimates of central value ratios and their 90% confidence intervals (CIs) for Cmax and AUC were calculated to quantify the magnitude of food effect. Statistical analyses were conducted using SAS, version 9.2 (SAS Institute, Inc., Cary, N.C.).

[2] = Population pharmacokinetics in HCV GT1 subjects with CKD Stage 4 or 5 (Example 17); format: in vivo, human; conditions: vs subjects without kidney disease
Description: Pharmacokinetic data from a Phase 2 study (N=38) in subjects with normal or mild renal impairment (subjects “without kidney disease”) were combined with preliminary data from a Phase 3b study in subjects with CKD Stage 4 (N=5) or Stage 5 on hemodialysis (N=14). In both studies subjects received OBV/PTV/r 25/150/100 mg QD and DSV 250 mg BID±RBV for 12 weeks. Pharmacokinetic parameters and steady-state exposures of the 3-DAA regimen were estimated using population pharmacokinetic models.

[3] = in vivo; cited from earlier work
[4] = human, in vivo
Description: All subjects received ombitasvir/paritaprevir/ritonavir 25/150/100 mg QD and dasabuvir 250 mg BID±weight based RBV. DAAs (OBV, PTV, or DSV) and RTV AUC values were available from 2093 subjects and RBV AUC values were available from 1584 subjects. The dataset included subjects with normal renal function (NF) (CrCl ≥90 mL/min, n=1495), mild renal impairment (RI) (CrCL 60-89 mL/min, n=576) and moderate RI (CrCL 30-59 mL/min, n=22). […] CrCL was retained in the models, regardless of its statistical significance, to determine the effect, if any, on the AUC values.

Question: With `Cc1cnc(C(=O)N[C@H]2CCCCC/C=C\[C@@H]3C[C@@]3(C(=O)NS(=O)(=O)C3CC3)NC(=O)[C@@H]3C[C@@H](Oc4nc5ccccc5c5ccccc45)CN3C2=O)cn1` [Compound 1, (2R,6S,13aS,14aR,16aS,Z)—N-(cyclopropylsulfonyl)-6-(5-methylpyrazine-2-carboxamido)-5,16-dioxo-2-(phenanthridin-6-yloxy)-1,2,3,5,6,7,8,9,10,11,13a,14,14a,15,16,16a-hexadecahydrocyclopropa[e]pyrrolo[1,2-a][1,4]diazacyclopentadecine-14a-carboxamide] as the molecule, how does the Tmax ([1]; human, in vivo) read?
Answer: The Tmax was 4.2 h.

Question: What about the “increase of mean AUC” value ([1]; both, human, in vivo) of the same molecule?
Answer: Its value is 228%.

Question: And the “mean Tmax” value ([1]; both, human, in vivo)?
Answer: Its value is 5.2 h.

Question: With `COc1c(-c2ccc3cc(NS(C)(=O)=O)ccc3c2)cc(-n2ccc(=O)[nH]c2=O)cc1C(C)(C)C` [Compound 3, N-(6-(3-tert-butyl-5-(2,4-dioxo-3,4-dihydropyrimidin-1(2H)-yl)-2-methoxyphenyl)naphthalen-2-yl)methanesulfonamide] as the molecule, how does the “exposures lower in CKD Stage 5” value [2] read?
Answer: The value was ~37%.

Question: For `NC(=O)c1ncn([C@@H]2O[C@H](CO)[C@@H](O)[C@H]2O)n1` [Ribavirin, ribavirin], which absolute bioavailability [3] is on record?
Answer: The absolute bioavailability was “approximately 50%”.

Question: And the “AUC values higher in mild/moderate RI compared to NF” value [4]?
Answer: Its value is “up to 17%”.

Question: With `CC(C)c1nc(CN(C)C(=O)N[C@H](C(=O)N[C@@H](Cc2ccccc2)C[C@H](O)[C@H](Cc2ccccc2)NC(=O)OCc2cncs2)C(C)C)cs1` [ritonavir, reference compound] as the molecule, how does the Tmax ([1]; human, in vivo) read?
Answer: The Tmax was 3.4 h.

Question: What about the “increase of mean AUC” value ([1]; both, human, in vivo) of the same molecule?
Answer: The value was 34%.

Question: And the “mean Tmax” value ([1]; both, human, in vivo)?
Answer: The value was 4.9 h.

Question: And the “exposures higher in CKD Stage 4 subjects” value [2]?
Answer: Its value is ~200%.

Question: And the “exposures lower in CKD Stage 5” value [2]?
Answer: Its value is “about 33%”.

Question: With “dimethyl (2S,2′S)-1,1′-((2S,2′S)-2,2′-(4,4′-((2S,5S)-1-(4-tert-butylphenyl)pyrrolidine-2,5,diyl)bis(4,1-phenylene))bis(azanediyl)bis(oxomethylene)bis(pyrrolidine-2,1-diyl)bis(3-methyl-1-oxobutane-2,1-diyl)dicarbamate [Compound 2]” as the molecule, how does the “mean Tmax” value ([1]; fasting conditions, single dose 25/150/100 mg) read?
Answer: Its value is 4.4 h.

Question: What about the “increase of mean AUC” value ([1]; high fat meal relative to fasting, Japanese subjects) of the same molecule?
Answer: The value was 73%.

Question: And the “mean Tmax” value ([1]; with a high fat meal, single dose 25/150/100 mg)?
Answer: The value was 5.3 h.

Question: What about the “exposures higher in CKD Stage 4 subjects” value [2] of the same molecule?
Answer: The value was “about 80%”.
